Experiment: xn = mol fraction of the nth substance listed
Details: 298.15 K, 100 kPa

CCn1cc[n+](C)c1.C[C@H](O)C(=O)[O-] + O
Details	electrical conductivity [S/m]	speed of sound [m/s]	viscosity [mPa·s]
x1 = 0.0056	0.329	–	–
x1 = 0.0097	–	1567.3	1.17
x1 = 0.0197	–	1631	1.44
x2 = 0.0056	–	1731.4	–
x2 = 0.0097	1.76	–	–
x2 = 0.0197	2.71	–	–
x2 = 0.0304	3.15	–	–
x2 = 0.0374	3.28	–	–
x2 = 0.0464	–	1735.1	110
x2 = 0.0739	3.02	–	–
x2 = 0.094	2.75	–	–
x2 = 0.0982	–	1738.6	60.5
x2 = 0.2881	1.07	–	–
x2 = 0.4781	0.597	–	–
x2 = 0.5219	–	1797.9	18.5
x2 = 0.6862	0.481	–	–
x2 = 0.7119	–	1826.6	11.3
x2 = 0.9018	0.259	–	–
x2 = 0.906	–	1842.9	5.65
x2 = 0.9261	–	1819.8	4.36
x2 = 0.9536	0.289	–	–
x2 = 0.9547	–	1748.4	2.68
x2 = 0.9626	–	1719.9	2.23

Reference: a compilation of properties of binary mixtures (doi:10.1021/jp911536z)
